According to PMC5728534 (PLoS ONE, 2017):
Changes are numbered by the printed parent chain. Where two headings read alike, the source gives them in different places.

Legend:
[1] = parameters: method as in ref 56 = [56]; 56 Pharma ® A. Fachinformation Ranitidin 150–1 A Pharma ® , Ranitidin 300–1 A Pharma ® : Rote Liste ®; 2013 [updated June 2013; cited 2016 21.10.2016].; settings: cited from earlier work
OCT1*1C (Phe160Leu) = target: T1, OCT1*1C (Phe160Leu) (Homo sapiens, UniProt O15245); settings: 1 and 10 μM ranitidine, 2 min
T1 sequence (O15245 1-554): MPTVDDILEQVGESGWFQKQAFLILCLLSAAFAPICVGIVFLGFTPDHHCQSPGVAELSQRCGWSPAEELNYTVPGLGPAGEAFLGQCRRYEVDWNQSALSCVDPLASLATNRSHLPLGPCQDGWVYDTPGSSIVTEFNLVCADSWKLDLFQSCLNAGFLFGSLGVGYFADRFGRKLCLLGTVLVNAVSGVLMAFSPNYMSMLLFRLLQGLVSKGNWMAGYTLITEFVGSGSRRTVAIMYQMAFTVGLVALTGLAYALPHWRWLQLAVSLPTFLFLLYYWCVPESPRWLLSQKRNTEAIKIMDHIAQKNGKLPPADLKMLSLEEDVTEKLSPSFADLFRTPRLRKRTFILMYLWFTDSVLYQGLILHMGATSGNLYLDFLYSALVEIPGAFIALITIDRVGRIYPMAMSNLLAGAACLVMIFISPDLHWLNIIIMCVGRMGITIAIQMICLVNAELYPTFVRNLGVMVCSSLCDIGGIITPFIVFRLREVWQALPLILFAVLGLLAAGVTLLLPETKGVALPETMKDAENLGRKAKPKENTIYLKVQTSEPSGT
From the text: (§1) HEK293 or CHO cells overexpressing the human OCT1 alleles *1A (characterized by the amino acid substitution Met408Val), *1B, *1C (Phe160Leu), *1D (Pro341Leu/Met408Val), *2 (Met420del), *3 (Arg61Cys), *4 (Gly401Ser), *5 (Gly465Arg/Met420del), *6 (Cys88Arg/Met420del), *7 (Ser14Phe), *8A (Arg488Met), *8B (Arg488Met/Met408Val), *9 (Pro117Leu), *10 (Ser189Leu), *11 (Ile449Thr), *12 (Ser29Leu), or *13 (Thr245Met), the human OCT2 reference and variant alleles (Ala270Ser), human OCT3, and the control cells (transfected with the empty pcDNA5 vector) were generated by targeted chromosomal integration using the Flp-In™ System (Life Technologies, Darmstadt, Germany).
(§2) Six hundred thousand HEK293 or CHO cells were plated per well in 12-well plates (pre-coated with poly-D-lysine) and were grown for 48 hours to reach confluence. Cells were kept at 37°C and 5% CO2 in DMEM (HEK293) or RPMI (CHO), supplemented with 10% FCS, 100 U/ml penicillin, and 100 μg/ml streptomycin. Uptake experiments were performed at pH 7.4 using HBSS supplemented with 10 mM HEPES buffer (herein referred to as HBSS+). […]
(§3) For all transport measurements, the intracellular amount of substrate was normalized to the total amount of protein of the sample as measured using the bicinchoninic acid assay [49].
(§4) For quantification of intracellular substrates, the cell debris were removed by centrifugation at 17,000 x g for 10 min. […]

OCT1*8 (Arg488Met) = target: T2, OCT1*8 (Arg488Met) (Homo sapiens, UniProt O15245, L160F/R488M); settings: not statistically significant (P = 0.5)
T2 sequence (O15245 1-554 L160F/R488M): T1 sequence (O15245 1-554) with L160F, R488M
From the text: as §1, §2, §3, §4

OCT1*2 (Met420del) = target: T3, OCT1*2 (Met420del) (Homo sapiens, UniProt O15245, DEL420-420/L160F); assay: Inhibition by ranitidine of OCT1-mediated substrate uptake, OCT1*2 allele, HEK293 cells; type: cell-based; parameters: expressed in transfected cells; host or cells: HEK293 T-REx (Flp-In)
T3 sequence (O15245 with tags, fused parts or gaps L160F/DEL420-420): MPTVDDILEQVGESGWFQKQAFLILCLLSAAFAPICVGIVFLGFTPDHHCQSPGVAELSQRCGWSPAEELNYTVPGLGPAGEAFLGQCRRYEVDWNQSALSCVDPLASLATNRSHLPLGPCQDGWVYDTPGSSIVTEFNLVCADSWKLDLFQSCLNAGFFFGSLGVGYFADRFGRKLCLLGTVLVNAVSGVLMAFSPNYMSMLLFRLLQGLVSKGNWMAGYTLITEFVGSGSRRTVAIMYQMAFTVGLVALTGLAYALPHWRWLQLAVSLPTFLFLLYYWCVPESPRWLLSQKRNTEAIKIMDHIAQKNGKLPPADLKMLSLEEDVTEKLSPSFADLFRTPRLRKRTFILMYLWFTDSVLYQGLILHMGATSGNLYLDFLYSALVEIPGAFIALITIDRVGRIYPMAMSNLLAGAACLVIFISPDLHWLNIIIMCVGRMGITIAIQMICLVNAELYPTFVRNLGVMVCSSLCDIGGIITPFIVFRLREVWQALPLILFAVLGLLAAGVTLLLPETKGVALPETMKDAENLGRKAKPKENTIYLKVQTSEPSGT
From the text: as §1
Cells were kept at 37°C and 5% CO2 in DMEM (HEK293) or RPMI (CHO), supplemented with 10% FCS, 100 U/ml penicillin, and 100 μg/ml streptomycin. Uptake experiments were performed at pH 7.4 using HBSS supplemented with 10 mM HEPES buffer (herein referred to as HBSS+). Cells were washed once with 1 ml pre-warmed HBSS+ buffer (37°C). […] Cells were washed twice with 2 ml ice-cold HBSS+ and lysed in 500 μl lysis buffer.
The intracellular concentration of MPP^+ was determined using liquid scintillation counting of radioactively labeled substrate. To this end, 400 μl cell lysate was measured with 9 ml Aquasafe Plus liquid scintillator using the Scintillation Counter LS6500 (Beckman Coulter, Krefeld, Germany). Intracellular ASP^+ concentrations were determined using fluorescence spectroscopy.
as §3
For quantification of intracellular substrates, the cell debris were removed by centrifugation at 17,000 x g for 10 min. Four-hundred μl of the supernatant was evaporated to dryness under nitrogen flow at 40°C. The residue was reconstituted in 200 μl 0.1% formic acid and 10 μl were injected into the LC-MS/MS. For the LC-MS/MS analysis an API 4000™ system tandem mass spectrometer (AB SCIEX, Darmstadt, Germany) was used. Samples were separated using a Brownlee SPP RP-Amide Column (4.6x100 mm, 2.7 μm; PerkinElmer), with a SecurityGuard C18, 4x2 mm pre-column (Phenomenex, Aschaffenburg, Germany).
Nonlinear regression to the Michaelis-Menten equation was performed to determine Km and vmax using GraphPad Prism version 6 (GraphPad Software Inc., La Jolla, CA, USA). Nonlinear regression to the Hill equation v = vmin+(vmax-vmin)/1+([I]/IC50)^-Hillslope was performed to determine IC50 using SigmaPlot version 12.0 (Systat Software, San Jose, California, USA).

OCT1*3 (Arg61Cys) = target: T4, OCT1*3 (Arg61Cys) (Homo sapiens, UniProt O15245, L160F/R61C)
T4 sequence (O15245 1-554 R61C/L160F): T1 sequence (O15245 1-554) with R61C, L160F
From the text: as §1, §2, §3, §4

In the case of `CNC(=C[N+](=O)[O-])NCCSCc1ccc(CN(C)C)o1` [ranitidine, Ranitidine], the “dosages exceeding the single dose not associated with a higher prevalence of adverse reactions” value [1] is given as “more than 20 fold”, the “uptake of ranitidine compared to the reference allele” value (OCT1*1C (Phe160Leu)) is given as “no significant difference” and the “increase in vmax compared to the reference allele” value (OCT1*8 (Arg488Met)) is given as 25%. For the same compound, the IC50 at 2 min (OCT1*2 (Met420del); human, HEK293 cells overexpressing OCT1*2 (Met420del), pH 7.4, probe metformin (100 μM), substrate 100 μM metformin, OCT1*2, 2 min, HEK293) was 14.8 µM, the inhibition at 2 min (OCT1*2 (Met420del); human, HEK293 cells overexpressing OCT1*2 (Met420del), pH 7.4, probe metformin (100 μM), read-out: inhibition of metformin uptake) was 50% and the inhibition at 2 min (OCT1*2 (Met420del); human, HEK293 cells overexpressing OCT1*2 (Met420del), pH 7.4, probe morphine (0.1 μM), read-out: inhibition of morphine uptake) was ≤ 30%. The inhibition at 2 min (OCT1*2 (Met420del); human, HEK293 cells overexpressing OCT1*2 (Met420del), pH 7.4, high concentrations expected in the gastrointestinal tract, all substrates tested, OCT1*2, read-out: inhibition of substrate uptake) was > 70%, the IC50 (OCT1*2 (Met420del); substrate 0.1 μM MPP+, OCT1*2, 2 min, HEK293) was 34.4 µM and the IC50 (OCT1*2 (Met420del); substrate 0.1 μM morphine, OCT1*2, 2 min, HEK293) was 19.5 µM. For the same compound, the IC50 (OCT1*2 (Met420del); substrate 1 μM ASP+, OCT1*2, 2 min, HEK293) was 155 µM and the “decrease of vmax compared to the reference allele” value (OCT1*3 (Arg61Cys)) was “more than 50%”.
